Usually IC50 stands for the point on the concentration scale where inhibition reaches its midpoint.

Among the data in paper PMC10039899, “Integrative proteogenomic characterization of early esophageal cancer” (Nature Communications, 2023) are IC50 values, retold here.

The target of this experiment is T1, phosphoglycerate kinase 1 (PGK1) (Homo sapiens, UniProt P00558).
T1 construct: Flag-tagged PGK1, whole-length cDNA, purified from HEK293T cells
T1 sequence (P00558 2-417): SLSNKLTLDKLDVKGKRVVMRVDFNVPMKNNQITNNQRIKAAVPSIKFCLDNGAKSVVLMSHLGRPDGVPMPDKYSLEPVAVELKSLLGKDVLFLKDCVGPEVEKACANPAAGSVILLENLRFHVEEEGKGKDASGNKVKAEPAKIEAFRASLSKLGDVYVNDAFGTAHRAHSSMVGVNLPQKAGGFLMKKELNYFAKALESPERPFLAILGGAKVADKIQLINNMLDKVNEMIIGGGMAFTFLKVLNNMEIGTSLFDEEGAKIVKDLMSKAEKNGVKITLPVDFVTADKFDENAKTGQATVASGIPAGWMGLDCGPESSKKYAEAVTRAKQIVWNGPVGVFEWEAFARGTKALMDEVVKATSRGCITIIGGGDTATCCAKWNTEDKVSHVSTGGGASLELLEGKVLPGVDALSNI
The experiment can be described thus: in vitro enzymatic assay of purified Flag-PGK1, GAPDH-coupled, NADH decrease at […] nm. The class given is biochemical.

The molecule `Nc1ccn([C@@H]2O[C@H](CO)[C@@H](O)C2(F)F)c(=O)n1` [gemcitabine] registered a half-maximal inhibitory concentration (IC50) of 0.0163 µM.
